{"source": "paper PMC11822746", "about": "“Nanoscale Hydrophobicity of Transport Barriers in the Nuclear Pore Complex as Compared with the Liquid/Liquid Interface by Scanning Electrochemical Microscopy” (Analytical Chemistry, 2025)", "key": {"[1]": {"tested_on": "NPCs of micropore-supported nuclear envelope (NE)", "assay": "Steady-state SECM approach-curve measurement of NPC permeability to GRn", "format": "in vitro ADME, Xenopus laevis", "details": "SECM approach curve at centre of micropore-supported NE patch, 10 μm-diameter micropipet, MIB; 8.6 μM GR25 or 130 μM GR5; finite element fit, homogeneous model; fit uncertainty ±20%", "protocol": "The nucleus was isolated from the stage VI oocyte of an adult female X. laevis frog (Ecocyte Bioscience, Austin, Texas) to spread the NE on a microporous Si3N4 membrane, as reported elsewhere.[24] The large nucleus (∼0.4 mm in diameter) was isolated in the isotonic 1.5% PVP solution of mock intracellular buffer (MIB) at pH 7.4. MIB contains 90 mM KCl, 10 mM NaCl, 2 mM MgCl2, 1.1 mM EGTA, 0.15 mM CaCl2, and 10 mM HEPES, where free Ca^2+ was buffered at the physiological level of ∼200 nM in oocytes.[39] The spread NE was adhered to the membrane treated with Cell-Tak (Corning, Corning, New York).\nA home-built SECM instrument[40] with a potentiostat (CHI 7042E, CH Instruments, Austin, Texas) was controlled by using a custom LabVIEW program (National Instruments, Austin, Texas).[41] Tapered micropipets were obtained from borosilicate glass capillaries (o.d./i.d. = 1.0 mm/0.58 mm, 10 cm in length) using a CO2-laser capillary puller (model P-2000 Sutter Instrument, Novato, California). […]\nWe employed DNNS-doped micropipets to measure the similar steady-state permeability of the NPCs to GRn. […] The strong transient response to GR25 is attributed to the dissociation of GR25 from the NPC as induced by an SECM tip and was investigated quantitatively by chronoamperometry below to confirm strong NPC–GR25 interactions. […]"}, "[2]": {"details": "extra-thermodynamic assumption (tetraphenylarsonium/tetraphenylborate); cited from earlier work", "from_the_text": "We calibrated the potential of the NB phase against the aqueous phase by using an extra-thermodynamic assumption (Figure 3) to calculate the free energy change in GRn transfer, as discussed later. Specifically, it was assumed that the free energies of tetraphenylarsonium and tetraphenylborate transfer across the interface are identical.[36] […] Half-wave and formal potentials are identical for electrochemically reversible transfer of tetrabutylammonium."}}}
{"smiles": "N=C(N)NCCC[C@H](NC(=O)CNC(=O)[C@H](CCCNC(=N)N)NC(=O)CNC(=O)[C@H](CCCNC(=N)N)NC(=O)CNC(=O)[C@H](CCCNC(=N)N)NC(=O)CNC(=O)[C@H](CCCNC(=N)N)NC(=O)CNC(=O)[C@H](CCCNC(=N)N)NC(=O)CNC(=O)[C@H](CCCNC(=N)N)NC(=O)CNC(=O)[C@H](CCCNC(=N)N)NC(=O)CNC(=O)[C@H](CCCNC(=N)N)NC(=O)CNC(=O)[C@H](CCCNC(=N)N)NC(=O)CNC(=O)[C@H](CCCNC(=N)N)NC(=O)CNC(=O)[C@H](CCCNC(=N)N)NC(=O)CNC(=O)[C@H](CCCNC(=N)N)NC(=O)CNC(=O)[C@H](CCCNC(=N)N)NC(=O)CNC(=O)[C@H](CCCNC(=N)N)NC(=O)CNC(=O)[C@H](CCCNC(=N)N)NC(=O)CNC(=O)[C@H](CCCNC(=N)N)NC(=O)CNC(=O)[C@H](CCCNC(=N)N)NC(=O)CNC(=O)[C@H](CCCNC(=N)N)NC(=O)CNC(=O)[C@H](CCCNC(=N)N)NC(=O)CNC(=O)[C@H](CCCNC(=N)N)NC(=O)CNC(=O)[C@H](CCCNC(=N)N)NC(=O)CNC(=O)[C@H](CCCNC(=N)N)NC(=O)CNC(=O)[C@H](CCCNC(=N)N)NC(=O)CNC(=O)[C@H](CCCNC(=N)N)NC(=O)CN)C(=O)O", "note": "[GR25]", "values": [{"measurement": "steady-state permeability, kss, through the NE", "setting": "[1]", "value": "7.2 × 10^–3 cm/s"}]}
{"smiles": "CCCC[N+](CCCC)(CCCC)CCCC", "note": "[tetrabutylammonium]", "values": [{"measurement": "formal potential of transfer across the NB/water interface", "setting": "[2]", "value": 0.29, "unit": "V"}]}
